# According to ChEMBL document CHEMBL1153640, “Selective naphthalene H(3) receptor inverse agonists with reduced potential to induce phospholipidosis and their quinoline analogs” (Bioorg Med Chem Lett, 2009):
# Target: Cytochrome P450 2C9 (Homo sapiens, UniProt P11712)
# Experiment: Inhibition of CYP2C9
# Type: ADME
# Conditions: not given; call rule not given here
# Sequence of Cytochrome P450 2C9 (P11712 whole entry): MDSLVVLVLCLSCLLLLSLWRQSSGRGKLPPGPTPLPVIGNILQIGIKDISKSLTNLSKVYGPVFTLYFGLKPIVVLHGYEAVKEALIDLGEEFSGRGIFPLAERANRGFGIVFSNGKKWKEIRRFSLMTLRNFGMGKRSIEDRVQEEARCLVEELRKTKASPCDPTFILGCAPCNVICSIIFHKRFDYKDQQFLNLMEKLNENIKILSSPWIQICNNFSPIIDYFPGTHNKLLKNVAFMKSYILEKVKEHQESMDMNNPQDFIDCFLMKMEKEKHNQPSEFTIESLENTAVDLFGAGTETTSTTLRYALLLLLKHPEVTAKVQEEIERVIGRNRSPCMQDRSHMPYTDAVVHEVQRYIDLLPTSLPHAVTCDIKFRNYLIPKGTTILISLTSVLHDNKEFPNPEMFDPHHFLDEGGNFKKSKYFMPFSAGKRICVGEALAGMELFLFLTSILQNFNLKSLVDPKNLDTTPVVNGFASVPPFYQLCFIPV
row,Compound,IC50
1,CC(C)N1CCC(Oc2ccc3cc(C(=O)N4CCOCC4)ccc3c2)CC1,> 41000 nM
2,CC1CCN(C(=O)c2ccc3cc(OCCCN4CCCCC4)ccc3c2)CC1,> 12000 nM

# Tested on: not listed separately
# Experiment: Dissociation constant, pKa of the compound
# Type: physicochemical
# Conditions: not given
row,Compound,pKa
1,CC(C)N1CCC(Oc2ccc3cc(C(=O)N4CCOCC4)ccc3c2)CC1,9.3
2,CC1CCN(C(=O)c2ccc3cc(OCCCN4CCCCC4)ccc3n2)CC1,9.7
3,O=C(c1ccc2cc(OCCCN3CCCCC3)ccc2n1)N1CCC1,9.4
4,CC1CCN(C(=O)c2ccc3cc(OCCC4CCCN4C)ccc3c2)CC1 (stereo not given),9.9
5,CC(C)N1CCC(Oc2ccc3nc(C(=O)N4CCOCC4)ccc3c2)CC1,9.5
6,CC(C)N1CCC(Oc2ccc3nc(C(=O)N4CCC[C@H]4C#N)ccc3c2)CC1,9.5
7,CC(C)N1CCC(Oc2ccc3cc(C(=O)N4CCCC4C)ccc3c2)CC1 (stereo not given),9.71
8,CC(C)N1CCC(Oc2ccc3cc(C(=O)N4CCC(CO)CC4)ccc3c2)CC1,9.6
9,CC1CCN(C(=O)c2ccc3cc(OCCCN4CCCCC4)ccc3c2)CC1,9.86
10,COC1CCN(C(=O)c2ccc3cc(OC4CCN(C(C)C)CC4)ccc3n2)CC1,9.5
11,O=C(c1ccc2cc(OCCCN3CCCCC3)ccc2c1)N1CCC(CO)CC1,9.6
12,CC1CCN(C(=O)c2ccc3cc(OC4CCN(C(C)C)CC4)ccc3c2)CC1,9.6
13,CC(C)CN1CCC(Oc2ccc3cc(C(=O)N4CCC(C)CC4)ccc3c2)CC1,9.8
14,CC(C)N1[C@@H]2CC(Oc3ccc4nc(C(=O)N5CCOCC5)ccc4c3)CC[C@H]1C2 (stereo not given in full),8.97
15,CC(C)N1CCC(Oc2ccc3nc(C(=O)N4CCC4)ccc3c2)CC1,9.5
16,CC1CCN(C(=O)c2ccc3cc(OC4CCN(C(C)C)C4)ccc3c2)CC1 (stereo not given),9.4
17,COC1CCN(C(=O)c2ccc3cc(OC4CCN(C(C)C)CC4)ccc3c2)CC1,9.4
18,COC1CCN(C(=O)c2ccc3cc(OCCCN4CCCCC4)ccc3c2)CC1,9.57
19,CC1CCN(C(=O)c2ccc3cc(OCCCN4CCOCC4)ccc3c2)CC1,7.8

# Tested on: not listed separately
# Experiment: Metabolic stability in human liver microsomes assessed as clearance per mg of protein
# Type: ADME, Microsome
# Conditions: not given
row,Compound,microsomal CLint
1,CC(C)N1CCC(Oc2ccc3cc(C(=O)N4CCOCC4)ccc3c2)CC1,23 µL/min/mg
2,CC1CCN(C(=O)c2ccc3cc(OCCCN4CCCCC4)ccc3c2)CC1,33 µL/min/mg

# Target: T1, Histamine H3 receptor (Homo sapiens, UniProt Q9Y5N1)
# Experiment: Inverse agonist activity at human histamine H3 receptor expressed in CHO cells by [35S]GTPgammaS binding assay
# Type: functional, cell-based
# Conditions: not given
# T1 sequence (Q9Y5N1 whole entry): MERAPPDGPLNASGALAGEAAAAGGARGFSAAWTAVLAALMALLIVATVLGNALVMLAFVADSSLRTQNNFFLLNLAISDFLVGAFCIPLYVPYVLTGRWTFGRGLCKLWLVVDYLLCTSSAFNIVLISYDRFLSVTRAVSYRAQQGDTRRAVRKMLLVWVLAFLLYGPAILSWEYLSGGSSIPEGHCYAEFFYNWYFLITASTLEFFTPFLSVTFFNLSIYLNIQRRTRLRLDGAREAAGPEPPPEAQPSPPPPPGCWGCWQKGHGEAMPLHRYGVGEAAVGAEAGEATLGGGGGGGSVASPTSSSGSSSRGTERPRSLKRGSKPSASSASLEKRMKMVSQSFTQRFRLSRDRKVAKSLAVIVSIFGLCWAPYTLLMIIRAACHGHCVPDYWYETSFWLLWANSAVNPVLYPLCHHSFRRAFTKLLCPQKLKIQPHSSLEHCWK
row,Compound,EC50
1,CC(C)N1CCC(Oc2ccc3cc(C(=O)N4CCOCC4)ccc3c2)CC1,17 nM
2,CC1CCN(C(=O)c2ccc3cc(OCCCN4CCCCC4)ccc3c2)CC1,200 nM

# Tested on: not listed separately
# Experiment: Lipophilicity, log D at pH 7.4
# Type: physicochemical
# Conditions: buffer
row,Compound,logD
1,CC(C)N1CCC(Oc2ccc3cc(C(=O)N4CCOCC4)ccc3c2)CC1,0.6
2,CC1CCN(C(=O)c2ccc3cc(OCCCN4CCCCC4)ccc3c2)CC1,2.47

# Tested on: not listed separately
# Experiment: Metabolic stability in rat liver microsomes assessed as clearance per mg of protein
# Type: ADME, Microsome
# Conditions: not given
row,Compound,microsomal CLint
1,CC(C)N1CCC(Oc2ccc3cc(C(=O)N4CCOCC4)ccc3c2)CC1,3 µL/min/mg
2,CC1CCN(C(=O)c2ccc3cc(OCCCN4CCCCC4)ccc3c2)CC1,32 µL/min/mg

# Target: Cytochrome P450 3A4 (Homo sapiens, UniProt P08684)
# Experiment: Inhibition of CYP3A4
# Type: ADME
# Conditions: not given
# Sequence of Cytochrome P450 3A4 (P08684 whole entry): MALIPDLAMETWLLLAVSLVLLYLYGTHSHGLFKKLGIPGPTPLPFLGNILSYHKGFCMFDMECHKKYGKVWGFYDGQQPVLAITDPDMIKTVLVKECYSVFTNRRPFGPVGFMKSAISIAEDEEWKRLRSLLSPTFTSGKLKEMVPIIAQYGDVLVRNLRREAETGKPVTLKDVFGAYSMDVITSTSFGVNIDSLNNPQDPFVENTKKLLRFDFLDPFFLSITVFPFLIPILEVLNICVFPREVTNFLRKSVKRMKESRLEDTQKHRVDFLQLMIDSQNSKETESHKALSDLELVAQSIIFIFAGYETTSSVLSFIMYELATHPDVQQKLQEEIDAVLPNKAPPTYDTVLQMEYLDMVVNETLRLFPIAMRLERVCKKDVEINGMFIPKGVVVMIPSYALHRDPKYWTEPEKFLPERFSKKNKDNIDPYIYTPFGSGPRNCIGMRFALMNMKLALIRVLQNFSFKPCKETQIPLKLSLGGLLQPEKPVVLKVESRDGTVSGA
row,Compound,IC50
1,CC(C)N1CCC(Oc2ccc3cc(C(=O)N4CCOCC4)ccc3c2)CC1,> 41000 nM
2,CC1CCN(C(=O)c2ccc3cc(OCCCN4CCCCC4)ccc3c2)CC1,> 12000 nM

# Tested on: not listed separately
# Experiment: Solubility in 10 mM DMSO by lyophilizated solubility assay
# Type: physicochemical
# Conditions: not given
row,Compound,solubility
1,CC(C)N1CCC(Oc2ccc3cc(C(=O)N4CCOCC4)ccc3c2)CC1,> 558 µg/mL
2,CC1CCN(C(=O)c2ccc3cc(OCCCN4CCCCC4)ccc3c2)CC1,> 543 µg/mL

# Target: Histamine H1 receptor (Homo sapiens) (UniProt P35367)
# Experiment: Inhibition of human histamine H1 receptor at 3 uM
# Conditions: not given
# Sequence of Histamine H1 receptor (Homo sapiens) (P35367 whole entry): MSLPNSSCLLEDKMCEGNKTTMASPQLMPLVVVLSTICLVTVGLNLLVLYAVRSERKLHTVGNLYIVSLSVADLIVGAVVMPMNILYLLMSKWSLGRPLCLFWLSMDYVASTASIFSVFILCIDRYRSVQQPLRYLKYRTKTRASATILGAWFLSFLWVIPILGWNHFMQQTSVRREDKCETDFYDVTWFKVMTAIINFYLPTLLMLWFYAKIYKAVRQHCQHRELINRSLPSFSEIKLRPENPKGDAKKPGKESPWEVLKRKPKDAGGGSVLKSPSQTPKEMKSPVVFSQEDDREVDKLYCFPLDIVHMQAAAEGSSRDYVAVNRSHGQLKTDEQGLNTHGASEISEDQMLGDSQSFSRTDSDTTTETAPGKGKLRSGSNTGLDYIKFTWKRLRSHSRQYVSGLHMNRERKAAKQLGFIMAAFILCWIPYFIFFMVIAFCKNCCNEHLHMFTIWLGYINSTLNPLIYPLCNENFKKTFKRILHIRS
row,Compound,inhibition
1,CC(C)N1CCC(Oc2ccc3cc(C(=O)N4CCOCC4)ccc3c2)CC1,1.6%
2,CC1CCN(C(=O)c2ccc3cc(OC4CCN(C(C)C)CC4)ccc3c2)CC1,0.9%
3,CC(C)CN1CCC(Oc2ccc3cc(C(=O)N4CCC(C)CC4)ccc3c2)CC1,-4.5%

# Target: Histamine H4 receptor (Homo sapiens) (UniProt Q9H3N8)
# Experiment: Inhibition of human histamine H4 receptor at 3 uM
# Conditions: not given
# Sequence of Histamine H4 receptor (Homo sapiens) (Q9H3N8 whole entry): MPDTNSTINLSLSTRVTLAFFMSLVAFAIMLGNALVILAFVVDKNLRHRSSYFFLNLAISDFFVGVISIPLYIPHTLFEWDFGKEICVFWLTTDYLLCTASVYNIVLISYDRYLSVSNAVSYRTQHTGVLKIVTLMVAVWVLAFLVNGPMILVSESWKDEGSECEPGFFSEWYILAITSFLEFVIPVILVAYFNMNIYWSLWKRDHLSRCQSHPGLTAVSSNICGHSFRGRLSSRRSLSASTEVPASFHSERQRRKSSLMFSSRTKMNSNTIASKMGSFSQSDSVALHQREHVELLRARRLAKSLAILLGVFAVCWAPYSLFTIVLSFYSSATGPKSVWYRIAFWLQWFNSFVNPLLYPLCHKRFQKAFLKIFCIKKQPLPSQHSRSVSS
row,Compound,inhibition
1,CC(C)N1CCC(Oc2ccc3cc(C(=O)N4CCOCC4)ccc3c2)CC1,0%
2,CC1CCN(C(=O)c2ccc3cc(OCCCN4CCCCC4)ccc3c2)CC1,0%
3,CC1CCN(C(=O)c2ccc3cc(OC4CCN(C(C)C)CC4)ccc3c2)CC1,0%
4,CC(C)CN1CCC(Oc2ccc3cc(C(=O)N4CCC(C)CC4)ccc3c2)CC1,0%

# Target: Cytochrome P450 2D6 (Homo sapiens, UniProt P10635)
# Experiment: Inhibition of CYP2D6
# Type: ADME
# Conditions: not given
# Sequence of Cytochrome P450 2D6 (P10635 whole entry): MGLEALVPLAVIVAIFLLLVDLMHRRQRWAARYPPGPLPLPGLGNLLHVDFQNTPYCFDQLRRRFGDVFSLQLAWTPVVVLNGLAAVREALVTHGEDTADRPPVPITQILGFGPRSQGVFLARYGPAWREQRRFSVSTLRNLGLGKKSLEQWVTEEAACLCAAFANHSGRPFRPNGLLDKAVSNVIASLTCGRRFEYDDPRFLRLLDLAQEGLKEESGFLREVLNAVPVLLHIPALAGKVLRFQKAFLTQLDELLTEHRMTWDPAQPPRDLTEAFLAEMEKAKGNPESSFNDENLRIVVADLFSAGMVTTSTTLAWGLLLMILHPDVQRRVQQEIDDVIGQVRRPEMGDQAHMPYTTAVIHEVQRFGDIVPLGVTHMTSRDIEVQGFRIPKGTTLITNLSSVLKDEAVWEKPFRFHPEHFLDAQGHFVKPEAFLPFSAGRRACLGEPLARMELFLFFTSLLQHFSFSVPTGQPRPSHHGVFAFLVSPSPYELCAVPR
row,Compound,IC50
1,CC(C)N1CCC(Oc2ccc3cc(C(=O)N4CCOCC4)ccc3c2)CC1,> 41000 nM
2,CC1CCN(C(=O)c2ccc3cc(OCCCN4CCCCC4)ccc3c2)CC1,> 12000 nM

# Target: T2, Cytochrome P450 1A2 (Homo sapiens, UniProt P05177)
# T2 sequence (P05177 whole entry): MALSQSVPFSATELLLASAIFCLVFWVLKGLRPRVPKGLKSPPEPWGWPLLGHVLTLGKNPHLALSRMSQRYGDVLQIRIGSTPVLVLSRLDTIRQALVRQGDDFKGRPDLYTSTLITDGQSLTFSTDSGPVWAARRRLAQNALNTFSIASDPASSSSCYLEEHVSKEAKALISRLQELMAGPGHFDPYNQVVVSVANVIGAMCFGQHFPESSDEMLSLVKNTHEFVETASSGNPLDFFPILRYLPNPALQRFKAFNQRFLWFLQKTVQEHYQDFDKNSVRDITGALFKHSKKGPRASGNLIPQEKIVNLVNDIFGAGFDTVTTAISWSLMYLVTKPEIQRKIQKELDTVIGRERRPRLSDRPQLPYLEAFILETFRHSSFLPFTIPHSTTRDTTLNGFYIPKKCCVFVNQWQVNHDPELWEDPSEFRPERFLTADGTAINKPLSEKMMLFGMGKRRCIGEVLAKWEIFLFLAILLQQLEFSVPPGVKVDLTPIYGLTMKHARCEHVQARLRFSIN
# Experiment: Inhibition of CYP1A2
# Type: ADME
# Conditions: not given
row,Compound,IC50
1,CC(C)N1CCC(Oc2ccc3cc(C(=O)N4CCOCC4)ccc3c2)CC1,> 41000 nM
2,CC1CCN(C(=O)c2ccc3cc(OCCCN4CCCCC4)ccc3c2)CC1,> 12000 nM

# Tested on: not listed separately
# Experiment: Membrane permeability by PAMPA
# Type: ADME
# Conditions: read-out: permeability
row,Compound,Papp
1,CC(C)N1CCC(Oc2ccc3cc(C(=O)N4CCOCC4)ccc3c2)CC1,2.5 ×10⁻⁶ cm/s
2,CC1CCN(C(=O)c2ccc3cc(OCCCN4CCCCC4)ccc3c2)CC1,2.6 ×10⁻⁶ cm/s

# Target: T1, Histamine H3 receptor
# Experiment: Inhibition of human histamine H3 expressed in CHO cells by saturation binding experiment
# Type: cell-based
# Conditions: not given
row,Compound,Ki
1,CC(C)N1CCC(Oc2ccc3cc(C(=O)N4CCOCC4)ccc3c2)CC1,40 nM
2,CC1CCN(C(=O)c2ccc3cc(OCCCN4CCCCC4)ccc3n2)CC1,300 nM
3,O=C(c1ccc2cc(OCCCN3CCCCC3)ccc2n1)N1CCC1,119 nM
4,CC(C)N1CCC(Oc2ccc3nc(C(=O)N4CCOCC4)ccc3c2)CC1,238 nM
5,CC(C)N1CCC(Oc2ccc3nc(C(=O)N4CCC[C@H]4C#N)ccc3c2)CC1,87 nM
6,CC(C)N1CCC(Oc2ccc3cc(C(=O)N4CCCC4C)ccc3c2)CC1 (stereo not given),15 nM
7,CC(C)N1CCC(Oc2ccc3cc(C(=O)N4CCC(CO)CC4)ccc3c2)CC1,154 nM
8,CC1CCN(C(=O)c2ccc3cc(OCCCN4CCCCC4)ccc3c2)CC1,7 nM
9,COC1CCN(C(=O)c2ccc3cc(OC4CCN(C(C)C)CC4)ccc3n2)CC1,125 nM
10,O=C(c1ccc2cc(OCCCN3CCCCC3)ccc2c1)N1CCC(CO)CC1,103 nM
11,CC1CCN(C(=O)c2ccc3cc(OC4CCN(C(C)C)CC4)ccc3c2)CC1,34 nM
12,CC(C)CN1CCC(Oc2ccc3cc(C(=O)N4CCC(C)CC4)ccc3c2)CC1,36 nM
13,CC(C)N1[C@@H]2CC(Oc3ccc4nc(C(=O)N5CCOCC5)ccc4c3)CC[C@H]1C2 (stereo not given in full),30 nM
14,CC(C)N1CCC(Oc2ccc3nc(C(=O)N4CCC4)ccc3c2)CC1,62 nM
15,CC1CCN(C(=O)c2ccc3cc(OC4CCN(C(C)C)C4)ccc3c2)CC1 (stereo not given),234 nM
16,COC1CCN(C(=O)c2ccc3cc(OC4CCN(C(C)C)CC4)ccc3c2)CC1,62 nM
17,COC1CCN(C(=O)c2ccc3cc(OCCCN4CCCCC4)ccc3c2)CC1,30 nM
18,CC1CCN(C(=O)c2ccc3cc(OCCCN4CCOCC4)ccc3c2)CC1,2000 nM

# Tested on: not listed separately
# Experiment: Genotoxicity in mammalian cells assessed as increase in number of micronucleated cells by micronucleus test
# Type: cell-based
# Conditions: not given
row,Compound,Activity
1,CC(C)N1CCC(Oc2ccc3cc(C(=O)N4CCOCC4)ccc3c2)CC1,Non-toxic
2,CC1CCN(C(=O)c2ccc3cc(OCCCN4CCCCC4)ccc3c2)CC1,Non-toxic

# Tested on: Phospholipidosis
# Experiment: In vitro phospholipidosis in fibroblasts
# Type: ADME, cell-based
# Conditions: fibroblast
row,Compound,Phospholipidosis
1,CC(C)N1CCC(Oc2ccc3cc(C(=O)N4CCOCC4)ccc3c2)CC1,Not Active

# Target: Cytochrome P450 2C19 (Homo sapiens, UniProt P33261)
# Experiment: Inhibition of CYP2C19
# Type: ADME
# Conditions: not given
# Sequence of Cytochrome P450 2C19 (P33261 whole entry): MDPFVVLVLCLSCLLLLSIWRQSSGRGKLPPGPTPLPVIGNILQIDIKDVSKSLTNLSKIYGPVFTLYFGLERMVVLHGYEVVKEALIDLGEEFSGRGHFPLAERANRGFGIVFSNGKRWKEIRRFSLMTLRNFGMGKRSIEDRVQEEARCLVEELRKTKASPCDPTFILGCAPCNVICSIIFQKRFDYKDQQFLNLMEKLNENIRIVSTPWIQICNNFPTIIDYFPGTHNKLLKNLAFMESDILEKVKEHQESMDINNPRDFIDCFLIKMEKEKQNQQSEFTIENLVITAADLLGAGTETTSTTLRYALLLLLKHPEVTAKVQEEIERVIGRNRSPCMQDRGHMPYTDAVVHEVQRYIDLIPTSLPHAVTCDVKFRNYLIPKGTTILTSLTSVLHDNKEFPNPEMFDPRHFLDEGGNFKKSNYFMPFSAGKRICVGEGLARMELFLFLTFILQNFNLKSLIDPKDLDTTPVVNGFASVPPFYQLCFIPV
row,Compound,IC50
1,CC(C)N1CCC(Oc2ccc3cc(C(=O)N4CCOCC4)ccc3c2)CC1,> 41000 nM
2,CC1CCN(C(=O)c2ccc3cc(OCCCN4CCCCC4)ccc3c2)CC1,> 12000 nM

# Tested on: Salmonella enterica subsp. enterica
# Experiment: Toxicity in Salmonella Typhimurium assessed as increase in number of revertant colonies by AMES microsuspension assay
# Type: organism-based
# Conditions: salmonella enterica subsp. enterica serovar typhimurium
row,Compound,Activity
1,CC(C)N1CCC(Oc2ccc3cc(C(=O)N4CCOCC4)ccc3c2)CC1,Non-toxic
2,CC1CCN(C(=O)c2ccc3cc(OCCCN4CCCCC4)ccc3c2)CC1,Non-toxic

# Target: Histamine H2 receptor (Homo sapiens) (UniProt P25021)
# Experiment: Inhibition of human histamine H2 receptor at 3 uM
# Conditions: not given
# Sequence of Histamine H2 receptor (Homo sapiens) (P25021 whole entry): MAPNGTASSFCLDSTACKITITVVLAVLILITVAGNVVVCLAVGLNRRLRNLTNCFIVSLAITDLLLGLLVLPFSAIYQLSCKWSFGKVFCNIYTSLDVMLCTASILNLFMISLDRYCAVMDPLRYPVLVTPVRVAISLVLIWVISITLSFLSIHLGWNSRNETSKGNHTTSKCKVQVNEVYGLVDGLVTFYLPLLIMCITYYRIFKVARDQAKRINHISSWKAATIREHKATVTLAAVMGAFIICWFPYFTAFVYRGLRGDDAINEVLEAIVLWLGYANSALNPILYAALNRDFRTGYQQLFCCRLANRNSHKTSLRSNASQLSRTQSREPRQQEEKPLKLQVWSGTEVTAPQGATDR
row,Compound,inhibition
1,CC(C)N1CCC(Oc2ccc3cc(C(=O)N4CCOCC4)ccc3c2)CC1,-9.9%
2,CC1CCN(C(=O)c2ccc3cc(OCCCN4CCCCC4)ccc3c2)CC1,-0.3%
3,CC1CCN(C(=O)c2ccc3cc(OC4CCN(C(C)C)CC4)ccc3c2)CC1,-8%
4,CC(C)CN1CCC(Oc2ccc3cc(C(=O)N4CCC(C)CC4)ccc3c2)CC1,4.1%
